Assay results reported in US10710986B2, “PD-1/PD-L1 inhibitors” (Gilead Sciences, Inc., priority 2018, dated 2020).
Where “and” joins values, the source holds several entries; their conditions need not be identical. Equal values may be shown once.

Tested on: HBV-specific CD8^+ T cells
Experiment: IFN-γ and granzyme B production in HBV-specific CD8+ T cells from CHB patient PBMCs (7-day expansion and recall, flow cytometry)
Type: cell-based, human
Experimental: PBMCs were isolated from whole blood using a standard Ficoll® Paque gradient. Briefly, 25-30 mL of blood was gently overlaid on top of 15 mL Ficoll® Paque Plus solution (GE Healthcare, Chicago, Ill.) in a 50 mL Falcon tube, and centrifuged in an Allegra X-14R (Beckman Coulter, Indianapolis, Ind.) at 520 g for 20 minutes at 25° C. […] Next, the cells were centrifuged at 520 g for 5 minutes and red blood cells (RBC) lysed for 5 minutes at room temperature using RBC Lysis Buffer (eBioscience, San Diego, Calif.). […] PBMCs were either subsequently used for the T cell expansion assay, or were cryopreserved with 10% DMSO in FBS before further use.
PBMCs were seeded at 2-4×10^5 cells/well in 96-well round bottom plates (Corning, N.Y.). […] PBMCs were incubated for 7 days at 37° C. with 5% CO2 in a humidified incubator. […] To inhibit protein transport, 1 μg/mL brefeldin. A solution (Sigma) was added to each well. After overnight incubation, cells were processed for immunostaining and flow cytometry as described herein.
Washed cells were resuspended in Live/Dead Aquamine Stain (Invitrogen) per manufacturer's instructions to determine the viability of the cells by flow cytometry. Live/Dead Aqua stained PBMCs were washed twice with FACS staining buffer (1% FBS in PBS), and then incubated with 50 μL of Fc blocking reagent (BD Biosciences, Franklin Lakes, N.J.) for 10 minutes at room temperature. A mixture of antibodies (50 μL/well) described in Table 6 were added to the blocking solution for surface staining, and PBMCs were incubated with the antibodies for 40 minutes at 4° C. […] Cells were washed twice with the permeabilization reagent included in the FoxP3 staining kit and incubated with antibodies for intracellular staining of IFN-γ and GrB (Table 6) at 1.0 μg/mL. After 1 hour incubation at 4° C., PBMCs were centrifuged and washed twice before being resuspended in FACS buffer. Stained PBMCs were analyzed by flow cytometry using a BD LSRFortessa X-20 Cell Analyzer (Becton Dickinson). BD Comp Beads (BD Biosciences) were used as compensation controls. CD8^+ and CD4^+ T cells were identified by gating on the live Aquamine ^−CD3^+CD8^+ and Aquamine-CD3+CD4^+ PBMC population respectively.
Flow cytometry data was analyzed using FlowJo Flow Cytometry Analysis Software v10 (TreeStar, Ashland, Oreg.). Data was exported and statistical analysis was performed using GraphPad Prism v6 (GraphPad Software, La Jolla, Calif.). Statistical significance relative to the DMSO control was calculated by two-tailed, paired t-test.

[1] = 650 nM, HBV core peptide-stimulated PBMCs from 14 CHB donors
[2] = PBMCs from 9 of the 14 CHB donors, compound 139 650 nM, durvalumab 10 μg/mL
[3] = average over CHB donors (14 for compound 139, 9 for durvalumab)
[4] = individual CHB donor, HBV core peptide-stimulated PBMCs, compound 139 at 650 nM

For COc1nc(-c2cccc(-c3cccc(-c4cnc(CNC[C@@H]5CCC(=O)N5)c(OC)n4)c3Cl)c2Cl)cnc1CNC[C@@H]1CCC(=O)N1 [compound 139], the “increase of frequency of GrB^+ CD8^+ T cells compared with DMSO” value [1] was 1.2 fold, the “increase of frequency of IFN-γ^+ CD8^+ T cells compared with DMSO” value [1] was 2.5 fold and the “increase of GrB^+ CD8^+ T cells, comparison with durvalumab” value [2] was 1.2 fold. For the same compound, the “increase of IFN-γ^+ CD8^+ T cells, comparison with durvalumab” value [2] was 2.5 fold, the “% GrB+ (GrB+ CD8+ T cells), Average” value [3] was 33.68% and the “% IFN-γ+ (IFN-γ+ CD8+ T cells), Average” value [3] was 3.13%. The “% GrB+ (GrB+ CD8+ T cells)” value [4] was 47.80% and 8.78% and 50.30% and 30.67% and 28.15% and 24.10% and 45.05% and 20.20% and 33.50% and 52.67% and 18.93% and 23.23% and 55.80% and 32.30% and the “% IFN-γ+ (IFN-γ+ CD8+ T cells)” value [4] was 2.63% and 0.94% and 0.41% and 0.61% and 3.06% and 0.90% and 3.28% and 4.69% (2×) and 0.30% and 7.74% and 1.86% and 11.17% and 1.53%.
